≈ marks a conversion by molar mass, not a printed value.
What was measured:
[1] = Microsomal stability in rat liver microsomes assessed as compound remaining measured after 30 mins; format: ADME, Microsome; conditions: read-out: Stability
Relaxin receptor 1 [2] = molecular target: T1, Relaxin receptor 1 (Mus musculus, UniProt Q6R6I7); assay: Agonist activity at mouse RXFP1 stably expressed in HEK293 cells assessed as intracellular cAMP accumulation incubated for 30 mins by HTRF assay; format: functional, cell-based
T1 sequence (Q6R6I7 whole entry): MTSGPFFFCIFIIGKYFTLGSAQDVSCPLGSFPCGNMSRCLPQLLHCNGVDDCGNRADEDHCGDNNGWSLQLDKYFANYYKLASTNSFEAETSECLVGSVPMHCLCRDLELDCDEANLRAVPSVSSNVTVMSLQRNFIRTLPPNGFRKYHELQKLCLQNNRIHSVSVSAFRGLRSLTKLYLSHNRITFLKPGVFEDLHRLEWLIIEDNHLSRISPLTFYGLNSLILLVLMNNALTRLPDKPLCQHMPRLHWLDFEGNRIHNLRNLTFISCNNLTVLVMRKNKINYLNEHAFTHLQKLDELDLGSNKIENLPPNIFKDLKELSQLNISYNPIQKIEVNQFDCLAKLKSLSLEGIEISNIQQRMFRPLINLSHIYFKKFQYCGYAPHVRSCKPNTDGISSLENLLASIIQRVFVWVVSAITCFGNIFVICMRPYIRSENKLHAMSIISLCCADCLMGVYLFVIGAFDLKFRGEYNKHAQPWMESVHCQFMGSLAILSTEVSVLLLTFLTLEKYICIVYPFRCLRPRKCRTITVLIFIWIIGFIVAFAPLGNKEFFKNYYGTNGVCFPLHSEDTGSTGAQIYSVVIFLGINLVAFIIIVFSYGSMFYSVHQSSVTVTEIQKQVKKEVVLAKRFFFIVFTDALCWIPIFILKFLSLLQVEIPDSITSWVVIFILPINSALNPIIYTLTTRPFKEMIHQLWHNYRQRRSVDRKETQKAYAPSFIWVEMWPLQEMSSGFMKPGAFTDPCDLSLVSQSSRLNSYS

[3] = Microsomal stability in human liver microsomes assessed as compound remaining measured after 30 mins; format: ADME, Microsome; conditions: read-out: Stability
[4] = Microsomal stability in mouse liver microsomes assessed as compound remaining measured after 30 mins; format: ADME, Microsome; conditions: read-out: Stability
Relaxin receptor 1 [5] = molecular target: T2, Relaxin receptor 1 (Homo sapiens, UniProt Q9HBX9); assay: Agonist activity at human RXFP1 stably expressed in HEK293 cells assessed as intracellular cAMP accumulation incubated for 30 mins by HTRF assay
T2 sequence (Q9HBX9 whole entry): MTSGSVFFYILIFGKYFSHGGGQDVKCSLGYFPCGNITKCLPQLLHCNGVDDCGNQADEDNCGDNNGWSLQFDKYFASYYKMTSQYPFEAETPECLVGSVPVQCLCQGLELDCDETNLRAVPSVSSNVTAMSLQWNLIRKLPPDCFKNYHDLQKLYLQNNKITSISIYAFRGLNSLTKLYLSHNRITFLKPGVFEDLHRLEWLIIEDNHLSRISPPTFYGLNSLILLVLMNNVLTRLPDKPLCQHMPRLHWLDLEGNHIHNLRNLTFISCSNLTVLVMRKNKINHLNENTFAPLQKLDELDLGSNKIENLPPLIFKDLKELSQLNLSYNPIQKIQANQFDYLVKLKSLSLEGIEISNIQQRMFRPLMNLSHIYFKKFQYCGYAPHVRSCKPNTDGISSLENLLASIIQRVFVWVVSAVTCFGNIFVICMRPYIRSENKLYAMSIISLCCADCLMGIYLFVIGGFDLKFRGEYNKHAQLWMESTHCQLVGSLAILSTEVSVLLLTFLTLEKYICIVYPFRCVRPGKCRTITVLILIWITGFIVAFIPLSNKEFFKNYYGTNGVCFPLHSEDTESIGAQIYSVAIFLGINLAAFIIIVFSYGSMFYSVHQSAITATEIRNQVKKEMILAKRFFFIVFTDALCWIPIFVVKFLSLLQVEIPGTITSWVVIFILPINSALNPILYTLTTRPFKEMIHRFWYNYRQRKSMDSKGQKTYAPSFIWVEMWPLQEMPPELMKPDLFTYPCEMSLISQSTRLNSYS

[6] = Thermodynamic aqueous solubility of compound in phosphate buffer at pH 7.4 by reversed-phase ultrahigh pressure liquid chromatography; format: physicochemical; conditions: for solubility thermodynamic: phosphate buffer, read-out: Therm_solubility
Relaxin receptor 1 [7] = molecular target: T3, Relaxin receptor 1 (Rattus norvegicus, UniProt Q6R6I6); assay: Agonist activity at rat RXFP1 stably expressed in HEK293 cells assessed as intracellular cAMP accumulation incubated for 30 mins by HTRF assay; format: cell-based
T3 sequence (Q6R6I6 whole entry): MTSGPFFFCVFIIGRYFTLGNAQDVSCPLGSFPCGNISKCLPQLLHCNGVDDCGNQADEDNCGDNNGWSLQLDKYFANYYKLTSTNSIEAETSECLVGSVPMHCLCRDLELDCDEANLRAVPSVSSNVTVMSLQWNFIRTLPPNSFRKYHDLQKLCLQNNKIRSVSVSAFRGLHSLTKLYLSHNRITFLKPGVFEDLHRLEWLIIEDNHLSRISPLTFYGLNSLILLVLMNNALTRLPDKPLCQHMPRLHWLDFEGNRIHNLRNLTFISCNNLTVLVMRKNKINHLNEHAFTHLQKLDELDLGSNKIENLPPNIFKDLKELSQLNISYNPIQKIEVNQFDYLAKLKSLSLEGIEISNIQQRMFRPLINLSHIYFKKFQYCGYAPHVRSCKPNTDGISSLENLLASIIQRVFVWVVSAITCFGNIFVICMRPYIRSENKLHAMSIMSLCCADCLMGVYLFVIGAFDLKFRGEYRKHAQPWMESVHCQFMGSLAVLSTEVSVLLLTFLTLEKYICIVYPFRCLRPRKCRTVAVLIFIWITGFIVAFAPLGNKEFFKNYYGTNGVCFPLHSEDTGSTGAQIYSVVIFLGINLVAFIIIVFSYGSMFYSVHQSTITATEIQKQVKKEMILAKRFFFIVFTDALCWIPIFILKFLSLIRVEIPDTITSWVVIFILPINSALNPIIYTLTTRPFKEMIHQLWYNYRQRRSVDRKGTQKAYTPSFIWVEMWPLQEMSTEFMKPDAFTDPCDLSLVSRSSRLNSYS

Relaxin receptor 1 [8] = molecular target: T1, Relaxin receptor 1; assay: Partial agonist activity at mouse RXFP1 expressed in HEK293 cells assessed as intracellular cAMP accumulation incubated for 30 mins by HTRF assay; format: functional, cell-based

SMILES	remaining at 0.5 h [1] [%]	EC50 (Relaxin receptor 1 [2]) [µM]	remaining at 0.5 h [3] [%]	remaining at 0.5 h [4] [%]	EC50 (Relaxin receptor 1 [5]) [µM]	also measured
COC(=O)c1ccc(F)c(-c2ccc(OC)c(C(=O)N[C@H]3[C@@H](C(=O)Nc4ccc(F)c(C(F)(F)F)c4)[C@H]4CC[C@@H]3C4=C(C)C)c2)c1	–	> 10	–	–	–	–
COc1cc(F)c(F)cc1C(=O)N[C@H]1[C@@H](C(=O)Nc2ccc(F)c(C(F)(F)F)c2)[C@H]2CC[C@@H]1/C2=C\c1c(Cl)cccc1Cl	–	–	–	–	3.7	–
COc1ccc(-c2cc(C(=O)O)ccc2F)cc1C(=O)N[C@H]1[C@@H](C(=O)Nc2ccc(F)c(C(F)(F)F)c2)[C@H]2CC[C@@H]1/C2=C\c1ccccc1	> 90	1.3	> 90	> 90	0.016	–
COc1ccc(-c2cc(C(O)C(=O)O)ccc2F)cc1C(=O)N[C@H]1[C@@H](C(=O)Nc2ccc(F)c(C(F)(F)F)c2)[C@H]2CC[C@@H]1/C2=C\c1cnoc1 (some centres undefined)	> 90	1.1	> 90	> 90	0.013	solubility thermodynamic [6]: 60 µg/mL (≈ 86 µM); EC50 (Relaxin receptor 1 [7]): 1.1 µM
COc1ccc(-c2ccccc2C(=O)O)cc1C(=O)N[C@H]1[C@@H](C(=O)Nc2ccc(F)c(C(F)(F)F)c2)[C@H]2CC[C@@H]1C2=C(C)C	–	> 20	–	–	–	–
COc1ccc(-c2cc(C(=O)O)ccc2F)cc1C(=O)N[C@H]1[C@@H](C(=O)Nc2ccc(F)c(C(F)(F)F)c2)[C@H]2CC[C@@H]1/C2=C\C1CC1	> 90	0.14	> 90	> 90	–	–
COc1ccc(-c2cc(C(=O)O)ccc2F)cc1C(=O)N[C@H]1[C@@H](C(=O)NC2CCCC2)[C@H]2CC[C@@H]1/C2=C\C1CC1	–	1.3	–	–	–	–
COc1ccc(-c2ccc(C(=O)O)cc2)cc1C(=O)N[C@H]1[C@@H](C(=O)Nc2ccc(F)c(C(F)(F)F)c2)[C@H]2CC[C@@H]1C2=C(C)C	–	2.3	–	–	0.38	EC50 (Relaxin receptor 1 [8]): 2.3 µM
COc1ccc(-c2cc(CC(=O)O)ccc2F)cc1C(=O)N[C@H]1[C@@H](C(=O)Nc2ccc(F)c(C(F)(F)F)c2)[C@H]2CC[C@@H]1/C2=C\c1cnoc1	> 90	0.74	> 90	> 90	0.011	solubility thermodynamic [6]: 130 µg/mL (≈ 191 µM); EC50 (Relaxin receptor 1 [7]): 1.2 µM
COc1ccc(-c2ccncc2)cc1C(=O)N[C@H]1[C@@H](C(=O)Nc2ccc(F)c(C(F)(F)F)c2)[C@H]2CC[C@@H]1C2=C(C)C	–	> 20	–	–	–	–
COc1ccc(-c2cc(C(=O)NS(C)(=O)=O)ccc2F)cc1C(=O)N[C@H]1[C@@H](C(=O)Nc2ccc(F)c(C(F)(F)F)c2)[C@H]2CC[C@@H]1/C2=C\c1cnoc1	> 90	0.56	> 90	> 90	0.022	solubility thermodynamic [6]: < 1 µg/mL; EC50 (Relaxin receptor 1 [7]): 0.89 µM
COc1cc(F)c(F)cc1C(=O)N[C@H]1[C@@H](C(=O)Nc2ccc(F)c(C(F)(F)F)c2)[C@@H]2CC[C@@H]1C2C(C)C (stereo in doubt)	–	–	–	–	3.5	–
CNC(=O)OC(C(=O)O)c1ccc(F)c(-c2ccc(OC)c(C(=O)N[C@H]3[C@@H](C(=O)Nc4ccc(F)c(C(F)(F)F)c4)[C@H]4CC[C@@H]3/C4=C\C3CC3)c2)c1 (stereo in doubt; 40)	> 90	0.39	> 90	> 90	0.006	Therm_solubility ([6]; buffer): 250 µg/mL; EC50 (Relaxin receptor 1 [7]): 0.59 µM
COc1cc(F)c(F)cc1C(=O)N[C@H]1[C@@H](C(=O)Nc2ccc(F)c(C(F)(F)F)c2)[C@H]2CC[C@@H]1/C2=C1/C=Cc2ccccc21	–	–	–	–	0.81	–
COc1ccc(-c2cccnc2)cc1C(=O)N[C@H]1[C@@H](C(=O)Nc2ccc(F)c(C(F)(F)F)c2)[C@H]2CC[C@@H]1C2=C(C)C	–	> 10	–	–	–	–

Continued, in another order:

remaining at 0.5 h [1] [%]	EC50 (Relaxin receptor 1 [2]) [µM]	remaining at 0.5 h [3] [%]	remaining at 0.5 h [4] [%]	EC50 (Relaxin receptor 1 [5]) [µM]	SMILES	also measured
> 90	3	> 90	> 90	–	COc1ccc(-c2cc(O)ccc2F)cc1C(=O)N[C@H]1[C@@H](C(=O)Nc2ccc(F)c(C(F)(F)F)c2)[C@H]2CC[C@@H]1/C2=C\c1cnoc1	–
–	2.2	–	–	–	COc1ccc(-c2cc(C(=O)O)ccc2F)cc1C(=O)N[C@H]1[C@@H](C(=O)NCc2ccccc2C(F)(F)F)[C@H]2CC[C@@H]1/C2=C\C1CC1	–
–	1.7	–	–	–	COc1ccc(-c2cc(C(=O)O)ccc2C)cc1C(=O)N[C@H]1[C@@H](C(=O)Nc2ccc(F)c(C(F)(F)F)c2)[C@H]2CC[C@@H]1C2=C(C)C	–
–	> 10	–	–	–	COc1ccc(-c2cncnc2)cc1C(=O)N[C@H]1[C@@H](C(=O)Nc2ccc(F)c(C(F)(F)F)c2)[C@H]2CC[C@@H]1C2=C(C)C	–
–	–	–	–	14	COc1cc(F)c(F)cc1C(=O)N[C@H]1[C@@H](C(=O)Nc2ccc(F)c(C(F)(F)F)c2)[C@@H]2CC[C@@H]1C2C(C)C (single isomer, unassigned; isomer 2)	–
> 90	0.11	> 90	> 90	0.008	CNC(=O)OC(C(=O)O)c1ccc(F)c(-c2ccc(OC)c(C(=O)N[C@H]3[C@@H](C(=O)Nc4ccc(F)c(C(F)(F)F)c4)[C@H]4CC[C@@H]3/C4=C\c3cnoc3)c2)c1 (some centres undefined)	EC50 (Relaxin receptor 1 [7]): 0.14 µM
> 90	0.95	> 90	> 90	–	COc1ccc(-c2cc(C(N)=O)ccc2F)cc1C(=O)N[C@H]1[C@@H](C(=O)Nc2ccc(F)c(C(F)(F)F)c2)[C@H]2CC[C@@H]1/C2=C\c1cnoc1	–
–	4.6	–	–	–	COc1ccc(-c2cc(C(=O)O)ccc2OC)cc1C(=O)N[C@H]1[C@@H](C(=O)Nc2ccc(F)c(C(F)(F)F)c2)[C@H]2CC[C@@H]1C2=C(C)C	–
–	6.3	–	–	–	COc1ccc(-c2cccc(C(=O)O)c2)cc1C(=O)N[C@H]1[C@@H](C(=O)Nc2ccc(F)c(C(F)(F)F)c2)[C@H]2CC[C@@H]1C2=C(C)C	–
–	0.94	–	–	–	COc1ccc(-c2cc(C(=O)O)ccc2F)cc1C(=O)N[C@H]1[C@@H](C(=O)Nc2ccc(F)c(C(F)(F)F)c2)[C@H]2CC[C@@H]1C2=C(C)C	–

— ChEMBL document CHEMBL6182920, “The Discovery of C7-Substituted Norbornyl Bisamides as RXFP1 Small Molecule Agonists” (J Med Chem, 2025)
